# ChEMBL document CHEMBL5528040, “Design and Synthesis of Novel 3-Nitro-1H-1,2,4-triazole-1,2,3-triazole-1,4-disubstituted Analogs as Promising Antitrypanosomatid Agents: Evaluation of In Vitro Activity against Chagas Disease and Leishmaniasis” (J Med Chem, 2024)
# Columns and labels:
# Trypanosoma cruzi [1] = experiment: (§1) Antitrypanosomal activity against Trypanosoma cruzi Tulahuen amastigotes transfected with Escherichia coli beta-galactosidase LacZ gene infected in monkey LLC-MK2 cells assessed as inhibition of amastigotes growth incubated for 72 hrs by absorbance based microplate reader analysis; format: functional, organism-based; conditions: LLC-MK2, 72 h
# [2] = Selectivity index, ratio of CC50 for cytotoxicity against monkey LLC-MK2 cells to IC50 for antitrypanosomal activity against Trypanosoma cruzi Tulahuen amastigotes transfected with Escherichia coli beta-galactosidase LacZ gene infected in monkey LLC-MK2 cells; format: toxicity, cell-based; conditions: read-out: Ratio CC50/IC50
# [3] = Substrate activity at Trypanosoma cruzi type I nitro reductase assessed as reduction in NADH incubated for 120 sec by spectrophotometric analysis
# Leishmania amazonensis = experiment: Antileishmanial activity against Leishmania amazonensis IFLA/BR/1967/PH8 amastigotes infected in murine peritoneal macrophages incubated for 24 hrs by Giemsa staining based analysis; format: functional, organism-based; conditions: IFLA/BR/1967/PH8, Peritoneal macrophage
# [4] = Cytotoxicity against monkey LLC-MK2 cells incubated for 72 hrs by MTT assay; format: toxicity, cell-based, Macaca mulatta; conditions: rhesus monkey
# [5] = Mutagenicity in Salmonella typhimurium TA100 assessed as number of revertant colonies at 2.5 ug per plate incubated for 90 mins by AMES test (reference value: 88.00 +/- 2.65); format: toxicity, Salmonella enterica subsp. enterica serovar Typhimurium; conditions: in vivo, 1.5 h, dose 2.5 µg
# Trypanosoma cruzi [6] = experiment: as §1, with “Potency index, ratio of Benznidazole IC50 to test compound IC50 for antitrypanosomal” for “Antitrypanosomal”; format: functional
# [7] = Mutagenicity in Salmonella typhimurium TA98 assessed as number of revertant colonies at 10 ug per plate incubated for 90 mins by AMES test (reference value: 22.67 +/- 0.58); format: toxicity, Salmonella enterica subsp. enterica serovar Typhimurium; conditions: in vivo, 1.5 h, dose 10 µg
IC50 (Trypanosoma cruzi [1]),pIC50 [3],IC50 (Leishmania amazonensis),SMILES,selectivity ratio [2],CC50 at 72 h [4],Activity [5],Ratio IC50 (Trypanosoma cruzi [6]),Activity [7]
9.89 µM,,4.7 µM,O=[N+]([O-])c1ncn(Cc2cn(-c3ccc(Cl)c(C(F)(F)F)c3)nn2)n1,> 5.05,> 50 µM,,,
> 50 µM,,4.7 µM,CS(=O)(=O)c1ccc(-n2cc(Cn3cnc([N+](=O)[O-])n3)nn2)cc1,> 1,> 50 µM,,,
0.84 µM,6.07,4.7 µM,COc1ccc(-n2cc(Cn3cnc([N+](=O)[O-])n3)nn2)cc1,> 59.5,> 50 µM,,,
0.61 µM,6.21,4.7 µM,O=[N+]([O-])c1ccc(-n2cc(Cn3cnc([N+](=O)[O-])n3)nn2)cc1,> 82,> 50 µM,,,
2.89 µM,,4.7 µM,COc1cc(-n2cc(Cn3cnc([N+](=O)[O-])n3)nn2)cc(OC)c1OC,> 17.3,> 50 µM,,,
7.93 µM,,4.7 µM,COc1cccc(-n2cc(Cn3cnc([N+](=O)[O-])n3)nn2)c1,> 6.3,> 50 µM,,,
13.8 µM,,89.5 µM,O=[N+]([O-])c1ncn(Cc2cn(-c3ccc4c(c3)OCO4)nn2)n1,> 3.62,> 50 µM,,,
0.31 µM,6.5,4.7 µM,O=[N+]([O-])c1ncn(Cc2cn(-c3ccc(Cl)cc3)nn2)n1,> 161,> 50 µM,,,
5.8 µM,,4.7 µM,O=[N+]([O-])c1ncn(Cc2cn(-c3cccc(C(F)(F)F)c3)nn2)n1,> 17.2,> 50 µM,,,
1.35 µM,5.86,4.7 µM,O=[N+]([O-])c1ncn(Cc2cn(-c3ccccc3)nn2)n1,> 37,> 50 µM,,,
> 50 µM,,4.7 µM,O=C(O)c1ccc(-n2cc(Cn3cnc([N+](=O)[O-])n3)nn2)cc1,> 1,> 50 µM,,,
24.4 µM,,4.7 µM,O=[N+]([O-])c1cccc(-n2cc(Cn3cnc([N+](=O)[O-])n3)nn2)c1,> 4.1,> 50 µM,,,

# The remaining lines, values behind:
SMILES,IC50 (Trypanosoma cruzi [1]),pIC50 [3],IC50 (Leishmania amazonensis),selectivity ratio [2],CC50 at 72 h [4],Activity [5],Ratio IC50 (Trypanosoma cruzi [6]),Activity [7]
COc1ccc(-n2cc(Cn3cnc([N+](=O)[O-])n3)nn2)cc1OC,1.12 µM,5.95,4.7 µM,> 44.6,> 50 µM,,,
O=[N+]([O-])c1ncn(Cc2cn(-c3ccc(C(F)(F)F)cc3)nn2)n1,3.6 µM,,4.7 µM,> 27.9,> 50 µM,,,
COc1cc(OC)cc(-n2cc(Cn3cnc([N+](=O)[O-])n3)nn2)c1,0.22 µM,6.65,4.7 µM,> 227,> 50 µM,,,
O=C(Cn1ccnc1[N+](=O)[O-])NCc1ccccc1 [BENZNIDAZOLE],,,,> 8.13,> 50 µM,,,
Cc1ccc(-n2cc(Cn3cnc([N+](=O)[O-])n3)nn2)cc1,0.33 µM,6.48,4.7 µM,> 152,> 50 µM,,,
O=[N+]([O-])c1ncn(Cc2cn(-c3ccc(Oc4ccccc4)cc3)nn2)n1,0.07 µM,7.15,4.7 µM,> 714,> 50 µM,,,
Nc1ccc2cc3ccccc3cc2c1 [2-AMINOANTHRACENE],,,,,,977.33,,
N#Cc1ccc(-n2cc(Cn3cnc([N+](=O)[O-])n3)nn2)cc1,1.45 µM,,4.7 µM,> 34.5,> 50 µM,,,
NS(=O)(=O)c1ccc(-n2cc(Cn3cnc([N+](=O)[O-])n3)nn2)cc1,> 50 µM,,4.7 µM,> 1,> 50 µM,,,
COc1ccc(-n2cc(Cn3ccnc3[N+](=O)[O-])nn2)cc1OC,0.65 µM,,,,,,,
O=C(O)c1cccc(-n2cc(Cn3cnc([N+](=O)[O-])n3)nn2)c1,> 50 µM,,4.7 µM,> 1,> 50 µM,,,
CSc1ccc(-n2cc(Cn3cnc([N+](=O)[O-])n3)nn2)cc1,0.21 µM,6.67,4.7 µM,> 238,> 50 µM,,,
O=[N+]([O-])c1ncn(Cc2cn(-c3ccc(F)cc3)nn2)n1,1.11 µM,5.95,4.7 µM,> 45,> 50 µM,,,
N#Cc1cccc(-n2cc(Cn3cnc([N+](=O)[O-])n3)nn2)c1,7.35 µM,,4.7 µM,> 6.8,> 50 µM,,,
O=[N+]([O-])c1ncn(Cc2cn(-c3cccc(Cl)c3)nn2)n1,5.72 µM,,4.7 µM,> 8.74,> 50 µM,,,
CCOC(=O)c1ccc(-n2cc(Cn3cnc([N+](=O)[O-])n3)nn2)cc1,38.4 µM,,4.7 µM,> 1.3,> 50 µM,,,
O=[N+]([O-])c1ncn(Cc2cn(-c3ccc(Cl)c(Cl)c3)nn2)n1,0.11 µM,6.95,4.7 µM,> 454,> 50 µM,,<=55,
O=[N+]([O-])c1ncn(Cc2cn(-c3ccc(F)c(F)c3)nn2)n1,22.6 µM,,4.7 µM,> 4.4,> 50 µM,,,
Nc1ccc([N+](=O)[O-])cc1N,,,,,,,,253
